Results reported in patent US4443460A, “2-[4-(Diphenylmethylene)-1-piperidinyl]-acetic acids and their amides” (UCB, Societe Anonyme, priority 1980, dated 1984).

Experiments:
[1] = tested on: bronchospasms induced by acetylcholine; test: Konzett-Roessler bronchospasm test, acetylcholine-induced; format: in vivo; details: Cavia porcellus, iv, guinea pigs, i.v., read-out: dose which inhibits 50% of the induced bronchospasms, Acetylcholine
Method: (§1) These activities were measured in guinea pigs by the method of H. Konzett and R. […] Anaesthetized and curarized guinea pigs are subjected to artificial ventilation. The endotracheal pressure is recorded. Repeated bronchial spasms are induced by successive and progressive intravenous injections of respectively acetylcholine, histamine and serotonin. The test compounds are also administered intravenously.

[2] = tested on: mice; details: mouse, in vivo, ip
Method: (§2) Progressive doses of the test compounds are administered intraperitoneally to groups of three male mice (body weight 18 to 22 g) and the general behaviour of the animals is observed according to known criteria. The reference compounds used are the following:
Furthermore, in this test, the toxicity of the compounds according to the present invention appears to be very low. This toxicity, determined by intraperitoneal administration in mice (dose which brings about the death of two animals out of three), is given in the following Table: […]

[3] = tested on: bronchospasms induced by histamine; test: Konzett-Roessler bronchospasm test, histamine-induced (antihistaminic activity); format: in vivo; details: Cavia porcellus, iv; guinea pigs, i.v., histamine-induced; read-out: dose which inhibits 50% of the induced bronchospasms, Histamine
Method: as §1

[4] = tested on: passive cutaneous anaphylaxis; test: passive cutaneous anaphylaxis test (PCA), antiallergic activity; format: in vivo; details: rats; for ED50: Rattus norvegicus, 0.25 h, read-out: ID 50 per os (reduction of 50% of the surface area of the colored spot)
Method: This activity is determined in rats by means of the passive cutaneous anaphylaxis test (PCA) (see J. Goose and A. M. J. N. Blair, Immunology,16,(1969),749-760; and U. Martin and D. Roemer, Arzneimittel-Forschung,28,(5), (1978),770-782).
Female rats are used, the sides of which have been partly shaved. Into the zone thus shaved there is injected intradermally, for passive sensitization of the animals, 0.05 ml of IGE antiovalbumin serum at a dilution such that, at the time of the PCA test, a distinct spot with a surface area of about 100 mm^2 appears at the point of injection.
72 Hours after the injection, 0.25 ml of a solution of allergen containing a coloring agent (5 mg of ovalbumin and 6 mg Evans Blue in 0.25 ml of a 0.9% aqueous solution of sodium chloride) is administered intravenously. At the point of intradermal injection, there appears a distinct blue spot, the surface of which is measured.
In order to test the activity of the compound according to the present invention, the procedure is carried out in the same manner; however:
the test compound is administered orally 72 hours after injection of the serum;
15 minutes after this administration, 0.25 ml of the solution of the allergen is injected intravenously;
30 minutes after the administration of the allergen, the surface of the blue spot is measured.
The following Table gives the immunological doses (ID 50 in μmol/kg) which bring about, on average of the total number of animals submitted to the test, a reduction of 50% of the surface area of the colored spot.

[5] = tested on: bronchospasms induced by serotonin; test: Konzett-Roessler bronchospasm test, serotonin-induced; format: in vivo; details: Cavia porcellus, iv, guinea pigs, i.v., read-out: dose which inhibits 50% of the induced bronchospasms, Serotonin
Method: as §1

[6] = tested on: mice; test: General behaviour of mice (Irwin's test), tranquilization; format: in vivo; details: male mice, intraperitoneal
Method: The behaviour is studied by means of Irwin's test (see S. Irwin, "General philosophy and methodology of screening: a multidimensional approach"; Gordon Research Conference on Medicinal Chemistry, Aug. 3-7, 1959, at Colby Junior College, New London).
as §2
The following Table gives the doses (in mg/kg) which induce the first manifestations of tranquilization in the animals: […]

[7] = tested on: respiratory spasm induced by pilocarpine; test: pilocarpine dog test, broncholytic activity; format: in vivo; details: dogs, i.v., 3200 μg/kg
Method: Anaesthetized and curarized dogs are subjected to artificial ventilation. The endotracheal pressure is recorded. A constant respiratory spasm is induced by the continuous intravenous perfusion of pilocarpine. The test substances are also administered intravenously.

[8] = oral, allergen i.v. 15 minutes after administration

| Compound | ED50 [1] | Toxicity (dose which brings about the death of two animals out of three) [2] | ED50 [3] | ED50 [4, 8] | ED50 [5] | "Tranquilizing" dose (first manifestations of tranquilization) [6] | ID 50 per os (reduction of 50% of the surface area of the colored spot) [4, 8] | activity when administered per os (in words) ([4]; per os) | reduction of the intensity of the induced spasm [7] |
| --- | --- | --- | --- | --- | --- | --- | --- | --- | --- |
| COc1ccc(C(=C2CCN(CCOCC(N)=O)CC2)c2ccccc2)cc1.Cl [compound H, 2-[2-[4-[(4-methoxyphenyl)phenylmethylene]-1-piperidinyl]ethoxy]-acetamide hydrochloride] | > 41.6 mg/kg | 416 mg/kg | 0.026 mg/kg | 31.4 µmol/kg | 0.18 mg/kg | – | – | – | – |
| Cl.O=C(O)COCCN1CCC(=C(c2ccccc2)c2ccc(Cl)cc2)CC1 [compound I, 2-[2-[4-[(4-chlorophenyl)phenylmethylene]-1-piperidinyl]ethoxy]-acetic acid hydrochloride] | 13.5 mg/kg | 844 mg/kg | 0.413 mg/kg | 100 µmol/kg | 1.18 mg/kg | 76 mg/kg | – | – | – |
| Cl.O=C(O)COCCOCCN1CCC(=C(c2ccccc2)c2ccc(Cl)cc2)CC1 [compound J, 2-[2-[2-[4-[(4-chlorophenyl)phenylmethylene]-1-piperidinyl]ethoxy]ethoxy]-acetic acid hydrochloride] | > 46.6 mg/kg | 140 mg/kg | 0.283 mg/kg | 100 µmol/kg | 0.796 mg/kg | 47 mg/kg | – | – | – |
| Cl.O=C(O)COCCN1CCC(=C(c2ccccc2)c2ccccc2Cl)CC1 [compound K, 2-[2-[4-[(2-chlorophenyl)phenylmethylene]-1-piperidinyl]ethoxy]-acetic acid hydrochloride] | 39.5 mg/kg | 422 mg/kg | 0.104 mg/kg | 100 µmol/kg | 0.43 mg/kg | 126 mg/kg | – | – | – |
| O=C(O)COCCN1CCC(=C(c2ccccc2)c2ccc(F)cc2)CC1 [compound L, 2-[2-[4-[(4-fluorophenyl)phenylmethylene]-1-piperidinyl]ethoxy]-acetic acid] | > 11.8 mg/kg | 369 mg/kg | 0.058 mg/kg | 34 µmol/kg | 0.198 mg/kg | 110 mg/kg | – | – | – |
| COc1ccc(C(=C2CCN(CCOCC(=O)O)CC2)c2ccccc2)cc1.Cl [compound M, 2-[2-[4-[(4-methoxyphenyl)phenylmethylene]-1-piperidinyl]ethoxy]-acetic acid hydrochloride] | > 41.8 mg/kg | 418 mg/kg | 0.181 mg/kg | 208 µmol/kg | 0.893 mg/kg | 125 mg/kg | – | – | – |
| Cl.O=C(COCCOCCN1CCC(=C(c2ccccc2)c2ccccc2)CC1)Nc1ccccc1 [compound N, 2-[2-[2-[4-(diphenylmethylene)-1-piperidinyl]ethoxy]ethoxy]-N-phenylacetamide hydrochloride] | 1.35 mg/kg | – | 0.192 mg/kg | 15.2 µmol/kg | 0.086 mg/kg | – | – | – | – |
| O=C(O)c1cc(=O)c2c(OCC(O)COc3cccc4oc(C(=O)O)cc(=O)c34)cccc2o1 [sodium cromoglycate, reference compound] | – | – | – | – | – | – | inactive | inactive | – |
| Cn1c(=O)c2[nH]cnc2n(C)c1=O [theophylline, reference compound] | – | – | – | – | – | – | – | – | 35% |
